Measured values reported in patent US20210127678A1, “ESTERS OF HETEROCYCLIC COMPOUNDS HAVING A NEMATOCIDAL ACTIVITY, THEIR AGRONOMIC COMPOSITIONS AND THEIR USE” (ISAGRO, S.P.A., priority 2018, published 2021).

What was measured:
[1] = tested on: cucumbers, cv Chinese Long; test: Phytotoxicity on cucumbers, cv Chinese Long (soil treatment of potted plants); format: in vivo, cucumber; conditions: zero=no symptoms, 10=destroyed plant
Procedure: New pots having a diameter of 15 cm were half filled with sterile soil. The portions of infested roots, previously cleaned up, were placed on the same in order to be able to correctly assess the degree of infestation and ensure that each pot contains the same nematic charge. 200-300 g of infested soil were subsequently added, then covered with a thin layer of sterile soil. The treatment was carried out by pouring 100 ml of solution on the surface of the soil, in which the product to be tested was dissolved. Tomato or cucumber seedlings at the stage of two or three true leaves were transplanted in the pots thus prepared, one or seven days after application. Different cultivars of tomato or cucumber were used, having a different sensitivity to the parasite and different growth times. In particular, a variety of ornamental tomatoes (cv Microtom) was used for assessing the final production, whose seedlings are small in size and are able to reach the ripeness of the fruit in pots and under greenhouse conditions in about two months The product was evaluated considering the possible phytotoxic effects that may compromise the development of the plant (in this case a zero-ten scale was used, according to which zero=no symptoms, 10=destroyed plant) and the effectiveness against nematodes. […] 2, 4, 12, 13, 17 included in general formula (I) and CR1, described in JP 2000038379 instead of the compound having general formula (I).

[2] = tested on: Meloidogyne sp.; test: Determination of nematocidal activity against Meloidogyne sp. on potted cucumbers, cv Chinese Long; format: in vivo; conditions: 30 days after transplantation; for % INFESTED ROOT / ROOT DEVELOPMENT / ALL INDEX scale 0-10: 4,000 g/hectare; for ROOT DEVELOPMENT: 100% = healthy comparative root; for ALL INDEX scale 0-10: Bridge-Page infestation scale
Procedure: Determination of Nematocidal Activity Against Meloidogyne sp. The tests aimed at testing the nematocidal activity of the product under examination were carried out using inoculae taken from a farming of Meloidogyne sp. maintained on potted tomato and cucumber plants and grown in greenhouses. To carry out the experiments, portions of roots having a good number of galls and soil were taken from the infested pots, in which larvae were present starting from the second stage of age. New pots having a diameter of 15 cm were half filled with sterile soil. The portions of infested roots, previously cleaned up, were placed on the same in order to be able to correctly assess the degree of infestation and ensure that each pot contains the same nematic charge. 200-300 g of infested soil were subsequently added, then covered with a thin layer of sterile soil. The treatment was carried out by pouring 100 ml of solution on the surface of the soil, in which the product to be tested was dissolved. Tomato or cucumber seedlings at the stage of two or three true leaves were transplanted in the pots thus prepared, one or seven days after application. Different cultivars of tomato or cucumber were used, having a different sensitivity to the parasite and different growth times. In particular, a variety of ornamental tomatoes (cv Microtom) was used for assessing the final production, whose seedlings are small in size and are able to reach the ripeness of the fruit in pots and under greenhouse conditions in about two months The containment capacity of the parasite was detected, 30 and 60 days after transplantation, considering the development of the root system (where 100% is the development achieved by the healthy comparative root) and the presence of galls on the roots. This was estimated using the infestation scale proposed by Bridge-Page, according to which the value zero corresponds to 0% of the root affected and the value 10 corresponds to 100% of infested root. […] 2, 4, 12, 13, 17 and the Compound CR1, on cucumbers, cv Chinese Long, at a dose of 4,000 g/hectare, effecting the survey 30 days after transplantation. […] 2, 4, 8, 12, 13, 17, 127, 129 and the Compound CR1, on cucumbers, cv Chinese Long, at doses of 2,000 g/hectare, 1,000 g/hectare and 500 g/hectare effecting the survey 30 days after transplantation.

| Structure (SMILES) | Phytotoxicity (scale 0-10) [1] | % INFESTED ROOT [2] [%] | ROOT DEVELOPMENT [2] [%] | ALL INDEX scale 0-10 [2] | GALL INDEX (scale 0-10) ([2]; dose applied 0.5 kg ai/ha) | WEIGHT OF FRESH PLANT ([2]; dose applied 0.5 kg ai/ha) [g] | GALL INDEX (scale 0-10) ([2]; dose applied 1 kg ai/ha) | WEIGHT OF FRESH PLANT ([2]; dose applied 1 kg ai/ha) [g] | GALL INDEX (scale 0-10) ([2]; dose applied 2 kg ai/ha) | WEIGHT OF FRESH PLANT ([2]; dose applied 2 kg ai/ha) [g] |
| --- | --- | --- | --- | --- | --- | --- | --- | --- | --- | --- |
| O=C(OCCC(F)=C(F)F)c1cccnc1 [CR1, pyridyl-3-carboxylate of 3,4,4-trifluoro-3-butenyl, reference compound] | 0 | 8 | 70 | 0.8 | 4.8 | 23 | 3.5 | 25 | 2.8 | 30 |
| Cc1nc(C(F)F)c(C(=O)OCCC(F)=C(F)F)s1 [Comp. Nr. 2, 2-methyl-4-difluoromethyl-thiazole-5-carboxylate of 3,4,4-trifluoro-3-butenyl] | 0 | 3 | 90 | 0.3 | 2.8 | 36 | 2.6 | 37 | 1.4 | 35 |
| Cc1nnc(C(=O)OCCC(F)=C(F)F)s1 [Comp. Nr. 4, 5-methyl-1,3,4-thiadiazole-2-carboxylate of 3,4,4-trifluoro-3-butenyl] | 0 | 3 | 90 | 0.3 | 2.2 | 35 | 1.9 | 37 | 1.9 | 34 |
| O=C(OCCC(F)=C(F)F)c1csc(C(F)(F)F)n1 [Comp. Nr. 8] | – | – | – | – | 2.5 | 25 | 2.3 | 27 | 1.2 | 37 |
| O=C(OCCC(F)=C(F)F)c1cccnc1C(F)(F)F [Comp. Nr. 12] | 0 | 0 | 95 | 0 | 3.1 | 27 | 2.9 | 28 | 2.1 | 31 |
| Cn1cc(C(=O)OCCC(F)=C(F)F)c(C(F)F)n1 [Comp. Nr. 13] | 0 | 0 | 95 | 0 | 2.1 | 36 | 1.2 | 38 | 1.2 | 39 |
| O=C(OCCC(F)=C(F)F)c1cn2cc(C(F)(F)F)cc(Cl)c2n1 [Comp. Nr. 17] | 0 | 3 | 85 | 0.3 | 3.3 | 26 | 2.8 | 28 | 2.2 | 31 |
| O=C(OCCC(F)=C(F)F)c1cncnc1 [Comp. Nr. 127] | – | – | – | – | 3.4 | 26 | 2.1 | 29 | 0.9 | 36 |
| Cc1cc(C(=O)OCCC(F)=C(F)F)no1 [Comp. Nr. 129] | – | – | – | – | 3.6 | 25 | 2.4 | 26 | 0.9 | 35 |
